# Patent US20030138374A1, “Image diagnosis probe based on substituted azobenzene or analogue thereof for disease attributable to amyloid accumulation and composition for image diagnosis containing the same” (priority 2000, published 2003)
# Like-named read-outs stand apart in the source and are kept apart here.
# How the values were obtained:
# insulin = target: T1, insulin (Homo sapiens, UniProt P01308); test: Insulin β structure recognition (thioflavin T fluorescence); type: binding; conditions: insulin 0.1 mg/ml with β structure; average of two measurements; read-out: Insulin β sheet structure recognition EC50
# T1 construct: insulin (purchased from Sigma) was dissolved in deionized water; purchased Sigma
# T1 sequence (P01308 25-54 limits assumed, species assumed): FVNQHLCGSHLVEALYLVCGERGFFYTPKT
# T1 sequence (P01308 90-110 limits assumed, species assumed): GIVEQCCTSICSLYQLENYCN
# From the text: (2)Method of Measuring Insulin β Structure Recognition
# It is known that proteins having β sheet structure such as insulin, amylin, etc are present in the human body in addition to the amyloid β protein (Burket et al., Biochemistry, vol. 11, p. 2435-2439, 1972; Ashburn et al, Chemistry and Biology, vol. 3, p. 351-358, 1996). It is desirable that a probe for diagnosing diseases in which amyloid is accumulated, including Alzheimer's disease by recognizing the amyloid protein, has the higher affinity with the amyloid β protein and has the lower affinity with other proteins having β sheet structure. Then, the affinity of each compound to insulin having β structure was measured.
# A method of quantifying β sheet structure of insulin in vitro was slightly modified to be used in the test of the present invention, with reference to the report by Klunk et al. (Journal of Histochemistry and Cytochemistry, vol.37, p.1237-1281, 1989). That is, insulin (purchased from Sigma) was dissolved in deionized water, adjusted to pH2 with hydrochloric acid, heated at 92° C. for 10 minutes, and cooled in a dry ice/ethanol cooling bath. Thereafter, heating at 92° C. for 3 minutes and cooling in a dry ice/ethanol cooling bath were repeated 7 or 8 times. This insulin solution was further diluted to 0.1 mg/ml with a phosphate buffer (pH 7.4) , and dispensed in a 96-well microplate at each volume of 50 microliters. A test compound dissolved in deionized water was dispensed at a volume of 50 microliters, and thiofravin T (emitting fluorescence depending on an extent of β structure) dissolved in a glycine-NaOH buffer (pH 8.5) was dispensed at each volume of 100 microliters, and then the fluorescent extent was measured with a fluorescent microplate reader (manufactured by Molecular Device, Model fmax) at an excitation wavelength of 442 nm and a measurement wavelength of 485 nm. When the fluorescence of thioflavin T alone was regarded as D, the fluorescence under the coexistence of insulin and thioflavin T was regarded as E, and the fluorescence under the coexistence of insulin, thioflavin T and a test compound was regarded as F, the insulin β structure recognition for the test compound was calculated by the following formula:
# Insulin β structure recognition for test compound (%) ={(E−F)/(E−D)}×100
# based on this value, by using the BSAS (Biological Statistical Analysis System) statistic program the 50% effective concentration (EC50) for recognizing an insulin β sheet structure for the test compound was obtained.
# [1] = Distribution coefficient between water/1-octanol; type: physicochemical; conditions: 1-octanol / aqueous phase, pH 5
# amyloid β protein = target: T2, amyloid β protein (Homo sapiens, UniProt P05067); test: β structure recognition of amyloid β protein (thioflavin T fluorescence); type: binding; conditions: for β structure recognition (%) at 1 µM: read-out: β Structure recognition (%); for β structure recognition (in words): comment on Table I
# T2 construct: the amyloid β protein (purchased from Peptide Laboratory) was dissolved in a potassium phosphate buffer (pH7.4); purchased Peptide Laboratory
# T2 sequence (P05067 672-711 limits assumed): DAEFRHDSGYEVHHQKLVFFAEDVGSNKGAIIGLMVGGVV
# Protocol: (1) Method of Quantifying the Amyloid β Protein Having β Sheet Structure—method of Measuring of Recognition of β Structure in a Test Compound
# Then, each 100 microliters of thioflavin T (which emits fluorescence depending on an extent of β structure of the amyloid β protein) dissolved in a glycine-NaOH buffer (pH 8.5) was added (final concentration 3 μM), and the fluorescence was immediately measured with a fluorescent microplate reader (manufactured by Molecular Device, Model fmax) at an excitation wavelength of 442 nm and a measurement wavelength of 485 nm. When the fluorescence of thioflavin alone was regarded as A, the fluorescence under the coexistence of the amyloid β protein and thioflavin T was regarded as B, and the fluorescence under the coexistence of the amyloid β protein, thioflavin T and a test compound was regarded as C, the recognition of β structure for the test compound was calculated by the following formula (unless otherwise indicated, the concentration of a test compound was 1 μM):
# β structure recognition for test compound (%)={(B−C)/(B−A)}×100
# [2] = Distribution coefficient between water/1-octanol; type: physicochemical
# Protocol: As an oily phase, 1-octanol was used and, as an aqueous phase, a phosphate buffer (pH 7.3) or ultra-pure water was used. A suitable amount of a test compound was dissolved in an oily phase or an aqueous phase, and both phases were placed in the same test tube, and shaken vigorously at room temperature for 30 minutes. After allowing to stand at room temperature over 1 hour, centrifugation at 2000 rpm for 10 minutes was carried out, followed by further standing at room temperature for 1 hour. The aqueous phase and the oily phase were sampled, respectively, and transferred to a 96-well microplate. By using a microplate reader (manufactured by Molecular Device, Model Spectramax 250), the absorbance was measured at a maximum absorbing wavelength for each test compound, and the concentration of the test compound was calculated from a calibration curve previously obtained. A distribution coefficient was calculated by the following formula. Distribution coefficient for test compound =(concentration of test compound in oily phase)/(concentration of test compound in aqueous phase) As the distribution coefficient becomes larger, it can be said that the blood-brain barrier permeability for the test compound is higher.
# [3] = test compound 1 μM, thioflavin T 3 μM, average of duplicated experiments
Compound,EC50 (insulin) [nM],Distribution coefficient [1],β structure recognition (%) at 1 µM (amyloid β protein; [3]) [%],Distribution coefficient ([2]; 1-octanol / phosphate buffer (pH 7.3) or ultra-pure water),Distribution coefficient (in words) ([2]; comment on Table I),β structure recognition (in words) (amyloid β protein),β Structure recognition (%) (amyloid β protein; [3]),β structure recognition (%) at 1 µM (amyloid β protein) [%]
"O=C(O)c1cc(/N=N/c2ccc(-c3ccc(/N=N/c4ccc(O)c(C(=O)O)c4)cc3)cc2)ccc1O [Chrysamine G, reference compound]",253,9.7 (pH 5),66.8,–,–,–,–,–
"CN(C)c1ccc(/C=C/c2cccc(/C=C/c3ccc(N(C)C)cc3)[n+]2C)cc1.[I-] [Compound N-039, N-[4-(2-{6-[4-(dimethylamino)styryl]-1-methylpiridinium-2-yl}vinyl)phenyl]-N-methylmethanamine]",113,–,97.7,35,high distribution coefficients,highly recognize β structure,–,–
"CCN(CC)c1ccc(/N=C/c2ccc(N(CC)CC)cc2O)cc1 [Compound N-058, 5-(diethylamino)-2-({[4-(diethylamino)phenyl]imino}methyl)phenol]",129,–,–,–,–,highly recognize β structure,93.6,–
"Nc1c(/N=N/c2ccc(-c3ccc(/N=N/c4cc(S(=O)(=O)O)c5ccccc5c4N)cc3)cc2)cc(S(=O)(=O)O)c2ccccc12 [Congo red, reference compound]",153,–,89.3,–,–,–,–,–
"CN(C)c1ccc(/N=N/c2ccc(N=C=S)cc2)cc1 [SA-239, 4-((4-isothiocyanatphenyl)azo)-N,N-dimethylaniline]",120,–,–,–,–,highly recognize β structure,–,83.3

# Further lines, with some results ahead:
EC50 (insulin) [nM],Distribution coefficient [1],β structure recognition (%) at 1 µM (amyloid β protein; [3]) [%],Distribution coefficient ([2]; 1-octanol / phosphate buffer (pH 7.3) or ultra-pure water),Distribution coefficient (in words) ([2]; comment on Table I),β structure recognition (in words) (amyloid β protein),β Structure recognition (%) (amyloid β protein; [3]),Compound,β structure recognition (%) at 1 µM (amyloid β protein) [%]
38,–,87.2,–,–,highly recognize β structure,–,CCN(CC)c1ccc(/N=N/c2ccc(Br)cn2)c(O)c1 [SA-147],–
449,–,96.9,–,–,highly recognize β structure,–,"CN(C)c1ccc(/N=C2\C=CC(=O)c3ccccc32)cc1 [SA-244, Indophenol Blue]",–
